Values of other authors in publication PMC6282790, “Incorporating physiologically relevant mobile phases in micellar liquid chromatography for the prediction of human intestinal absorption” (Biomedical Chromatography, 2018).
Where two headings read alike, the source gives them in different places. Blank lines part the entries; values can stand above or below the compound they belong to.

Tests used:
[1] = set-up: method as in https://pubchem.ncbi.nlm.nih.gov/, December 2014; unit not given beside the values; conditions: literature values; ref https://pubchem.ncbi.nlm.nih.gov/, December 2014
[2] = human intestinal absorption
[3] = in 0.15 M NaCl
[4] = ref Castillo‐Garit et al. (2014)

Structure (SMILES): CC(C(=O)O)c1ccc(-c2ccccc2)c(F)c1 (stereo not shown) [Flurbiprofen, flurbiprofen]
PSA [1]: 37.3 | Experimental. %HIA ([2]; ref Raevsky (2004)): 92%

Structure (SMILES): CN/C(=N/CCSCc1nc[nH]c1C)NC#N [Cimetidine, cimetidine]
PSA [1]: 88.89 | Experimental. %HIA ([2]; ref Castillo‐Garit et al. (2014), Linnankoski, Mäkelä, Ranta, Urtti, & Yliperttula (2006)): 68%

Structure (SMILES): C[C@H](CCC(=O)NCCS(=O)(=O)O)[C@H]1CC[C@H]2[C@@H]3[C@H](O)C[C@@H]4C[C@H](O)CC[C@]4(C)[C@H]3C[C@H](O)[C@]12C [NaTC, sodium taurocholate]
CMC ([3]; ref Natalini et al., 2014): 4 mM

Structure (SMILES): O=C(O)c1cccnc1 [Nicotinic acid, nicotinic acid]
Experimental. %HIA ([2]; ref Newby et al. (2015)): 94%

Structure (SMILES): CC(C(=O)O)c1cccc(C(=O)c2ccccc2)c1 (stereo not shown) [Ketoprofen, ketoprofen]
PSA [1]: 54.4

Structure (SMILES): NC(=O)N1c2ccccc2C=Cc2ccccc21 [Carbamazepine, carbamazepine]
PSA [1]: 46.3 | Experimental. %HIA ([2]; ref Dressman, Amidon, & Fleisher (1985), Varma, Sateesh, & Panchagnula (2005)): 84%

Structure (SMILES): C[C@H](CCC(=O)NCC(=O)[O-])[C@H]1CC[C@H]2[C@@H]3CC[C@@H]4C[C@H](O)CC[C@]4(C)[C@H]3C[C@H](O)[C@]12C.[Na+] [NaGDC, sodium glycodeoxycholate]
CMC ([3]; ref Natalini et al., 2014): 2.2 mM

Structure (SMILES): CC(C(=O)O)c1cccc(Oc2ccccc2)c1 (stereo not shown) [Fenoprofen, fenoprofen]
PSA [1]: 46.5 | Experimental. %HIA ([2]; ref Hou, Wang, Zhang, & Xu (2007)): 85%

Structure (SMILES): Cn1c(=O)c2[nH]cnc2n(C)c1=O [Theophylline, theophylline]
PSA [1]: 69.3 | Experimental. %HIA ([2]; ref Kansy, Senner, & Gubernator (1998)): 98%

The remaining lines, values ahead:

PSA [1]: 57.4 | Experimental. %HIA ([2]; ref Newby et al. (2015)): 92%
Structure (SMILES): CN(C)CCc1c[nH]c2ccc(C[C@H]3COC(=O)N3)cc12 [Zolmitriptan, zolmitriptan]

PSA [1]: 81.6
Structure (SMILES): OC(Cn1cncn1)(Cn1cncn1)c1ccc(F)cc1F [Fluconazole, fluconazole]

CMC ([3]; ref Natalini et al., 2014): 9 mM
Structure (SMILES): C[C@H](CCC(=O)NCC(=O)[O-])[C@H]1CC[C@H]2[C@@H]3[C@H](O)C[C@@H]4C[C@H](O)CC[C@]4(C)[C@H]3C[C@H](O)[C@]12C.[Na+] [NaGC, sodium glycocholate]

CMC ([3]; ref Natalini et al., 2014): 2.4 mM
Structure (SMILES): C[C@H](CCC(=O)NCCS(=O)(=O)[O-])[C@H]1CC[C@H]2[C@@H]3CC[C@@H]4C[C@H](O)CC[C@]4(C)[C@H]3C[C@H](O)[C@]12C.[Na+] [NaTDC, sodium taurodeoxycholate]

PSA [1]: 49.3 | Experimental. %HIA [2, 4]: 100%
Structure (SMILES): CC(=O)Nc1ccc(O)cc1 [Acetaminophen, acetaminophen]

PSA [1]: 72.7 | Experimental. %HIA ([2]; ref Grès et al. (1998)): 25%
Structure (SMILES): CC(C)(C)NCC(O)c1cc(O)cc(O)c1 (stereo not shown) [Terbutaline, terbutaline]

PSA [1]: 40.6 | Experimental. %HIA ([2]; ref Hou et al. (2007), Veber et al. (2002)): 94%
Structure (SMILES): CCCCC1C(=O)N(c2ccccc2)N(c2ccccc2)C1=O [Phenylbutazone, phenylbutazone]

Experimental. %HIA ([2]; ref Veber et al. (2002)): 54%
Structure (SMILES): O=C(O)Cc1ccccc1Nc1c(Cl)cccc1Cl [Diclofenac, diclofenac]

PSA [1]: 57.5 | Experimental. %HIA ([2]; ref Raevsky (2004)): 99%
Structure (SMILES): O=C(O)c1ccccc1O [Salicylic acid, salicylic acid]

PSA [1]: 37.3 | Experimental. %HIA ([2]; ref Newby et al. (2015)): 98%
Structure (SMILES): CC(C)Cc1ccc(C(C)C(=O)O)cc1 (stereo not shown) [Ibuprofen, ibuprofen]

Experimental. %HIA [2, 4]: 94%
Structure (SMILES): COc1ccc2cc([C@H](C)C(=O)O)ccc2c1 [Naproxen, naproxen]

CMC ([3]; ref Reis et al., 2004): 7.5 mM
Structure (SMILES): C[C@H](CCC(=O)[O-])[C@H]1CC[C@H]2[C@@H]3[C@H](O)C[C@@H]4C[C@H](O)CC[C@]4(C)[C@H]3C[C@H](O)[C@]12C.[Na+] [NaC, sodium cholate]

PSA [1]: 63.6 | Experimental. %HIA [2, 4]: 82%
Structure (SMILES): CC(=O)Oc1ccccc1C(=O)O [Acetylsalicylic acid, acetyl salicylic acid]
